Results: patent US20090099231A1, “3-Sulfonylamino-Pyrrolidine-2-One Derivatives as Factor Xa Inhibitors” (priority 2005, published 2009)
Counter-ions that a name gives are not always drawn.

What was measured:
[1] = target: human Factor Xa (Homo sapiens, UniProt P00742); test: In vitro assay for inhibition of Factor Xa (fluorogenic assay, Rhodamine 110 bis-Cbz-glycylglycyl-L-arginine amide substrate); assay type: biochemical; conditions: for Factor Xa inhibitory activity: human Factor Xa 0.0003 U.ml-1, substrate 10 μM, 15 min preincubation, room temperature, pH 7.4; for Ki: Ki=IC50/(1+[Substrate]/Km), i.e. IC50 divided by 1.6, human Factor Xa fluorogenic assay
Experimental: Compounds of the present invention were tested for their Factor Xa inhibitory activity as determined in vitro by their ability to inhibit human Factor Xa in a fluorogenic assay, using Rhodamine 110, bis-Cbz-glycylglycyl-L-arginine amide as the fluorogenic substrate. Compounds were diluted from a 10 mM stock solution in dimethylsulfoxide at appropriate concentrations. Assay was performed at room temperature using buffer consisting of: 50 mM Tris-HCl, 150 mM NaCl, 5 mM CaCl2, pH 7.4 containing human Factor Xa (final concentration of 0.0003 U.ml-1). Compound and enzyme were preincubated for 15 min prior to addition of the substrate (final concentration of 10 μM). The reaction was stopped after 3 hrs with the addition of H-D-Phe-Pro-Arg-Chloromethylketone. An LJL-Analyst fluorimeter was used to monitor fluorescence with 485 nm excitation/535 nm emission. To obtain IC50 values the data were analysed using ActivityBase® and XLfit®.
Ki=IC50/(1+[Substrate]/Km)
The Ki value for the above assay can be obtained by dividing the IC50 value by 1.6.

[2] = test system: human plasma; test: Measurement of Prothrombin Time (PT), time to clot formation in plasma; conditions: pooled plasma from 4 donors, test compound 0.03 to 100 uM, Thromboplastin C Plus
Experimental: Blood was collected into a sodium citrate solution (ratio 9:1) to give a final concentration of 0.38% citrate. Plasma was generated by centrifugation of citrated blood samples at 1200×g for 20 min at 4° C. and stored at −20° C. until use.
The PT test was performed using the BCS Coagulation Analyzer (Dade Behring). For assay, 50 ul of plasma containing test compound at concentrations ranging from 0.03 to 100 uM (made from a 100 uM stock containing 1% DMSO in plasma) was combined with 100 ul of Thromboplastin C Plus (Dade Behring). Upon addition of the reagents, absorbance at 405 nm was monitored and time to clot formation is determined (normal range for human plasma is 10.6-12.4 seconds).

Chain of human Factor Xa (P00742 235-488 limits assumed): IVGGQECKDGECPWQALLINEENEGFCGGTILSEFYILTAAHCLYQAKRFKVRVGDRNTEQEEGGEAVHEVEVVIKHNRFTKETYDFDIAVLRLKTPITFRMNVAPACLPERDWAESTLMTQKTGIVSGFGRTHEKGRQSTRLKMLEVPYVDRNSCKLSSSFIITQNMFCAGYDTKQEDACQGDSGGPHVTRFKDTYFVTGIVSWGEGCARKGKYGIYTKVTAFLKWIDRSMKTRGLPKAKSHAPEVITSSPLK
Chain of human Factor Xa (P00742 41-179 partner limits assumed): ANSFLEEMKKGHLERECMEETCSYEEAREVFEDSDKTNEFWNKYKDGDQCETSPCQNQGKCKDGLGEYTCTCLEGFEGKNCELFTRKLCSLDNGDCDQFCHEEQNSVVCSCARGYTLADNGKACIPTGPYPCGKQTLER

Row | Structure (SMILES) | Factor Xa inhibitory activity [1] | activity in prothrombin time (PT) test [2] | Ki [1]
1 | Cl.O=C1[C@@H](NS(=O)(=O)c2ccc3cc(Cl)ccc3c2)CCN1c1ccc2c(c1)CCNC2 [Example 1, 6-Chloro-N-[(3S)-2-oxo-1-(1,2,3,4-tetrahydro-6-isoquinolinyl)-3-pyrrolidinyl]-2-naphthalenesulfonamide hydrochloride] | exhibit Factor Xa inhibitory activity | exhibit activity | 
2 | Cl.O=C1[C@@H](NS(=O)(=O)/C=C/c2ccc(Cl)s2)CCN1c1ccc2c(c1)CCNC2 [Example 2, (E)-2-(5-Chloro-2-thienyl)-N-[(3S)-2-oxo-1-(1,2,3,4-tetrahydro-6-isoquinolinyl)-3-pyrrolidinyl]ethenesulfonamide hydrochloride] | exhibit Factor Xa inhibitory activity | exhibit activity | 
3 | Cl.O=C1[C@@H](NS(=O)(=O)c2cc3ccc(Cl)cc3s2)CCN1c1ccc2c(c1)CCNC2 [Example 3, 6-Chloro-N-[(3S)-2-oxo-1-(1,2,3,4-tetrahydro-6-isoquinolinyl)-3-pyrrolidinyl]-1-benzothiophene-2-sulfonamide hydrochloride] | exhibit Factor Xa inhibitory activity | exhibit activity | < 0.01 µM
4 | O=C1[C@@H](NS(=O)(=O)c2ccc3c(Cl)c[nH]c3c2)CCN1c1ccc2c(c1)CCNC2.O=CO [Example 4, 3-Chloro-N-[(3S)-2-oxo-1-(1,2,3,4-tetrahydro-6-isoquinolinyl)-3-pyrrolidinyl]-1H-indole-6-sulfonamide formate] | exhibit Factor Xa inhibitory activity | exhibit activity | 
5 | O=C1[C@@H](NS(=O)(=O)c2ccc3cc[nH]c3c2)CCN1c1ccc2c(c1)CCNC2.O=CO [Example 5, N-[(3S)-2-Oxo-1-(1,2,3,4-tetrahydro-6-isoquinolinyl)-3-pyrrolidinyl]-1H-indole-6-sulfonamide formate] |  | exhibit activity | 
6 | O=C1[C@@H](NS(=O)(=O)c2cc3ccc(Cl)cc3[nH]2)CCN1c1ccc2c(c1)CCNC2.O=CO [Example 6, 6-Chloro-N-[(3S)-2-oxo-1-(1,2,3,4-tetrahydro-6-isoquinolinyl)-3-pyrrolidinyl]-1H-indole-2-sulfonamide formate] | exhibit Factor Xa inhibitory activity | exhibit activity | < 0.01 µM
7 | CN1CCc2cc(N3CC[C@H](NS(=O)(=O)/C=C/c4ccc(Cl)s4)C3=O)ccc2C1.O=CO [Example 7, (E)-2-(5-Chloro-2-thienyl)-N-[(3S)-1-(2-methyl-1,2,3,4-tetrahydro-6-isoquinolinyl)-2-oxo-3-pyrrolidinyl]ethenesulfonamide formate] | exhibit Factor Xa inhibitory activity | exhibit activity | 
8 | CN1CCc2cc(N3CC[C@H](NS(=O)(=O)c4cc5ccc(Cl)cc5s4)C3=O)ccc2C1.O=CO [Example 8, 6-Chloro-N-[(3S)-1-(2-methyl-1,2,3,4-tetrahydro-6-isoquinolinyl)-2-oxo-3-pyrrolidinyl]-1-benzothiophene-2-sulfonamide formate] | exhibit Factor Xa inhibitory activity | exhibit activity | < 0.01 µM
9 | O=C1[C@@H](NS(=O)(=O)c2cc3cc(Cl)ccc3s2)CCN1c1ccc2c(c1)CCNC2 [Example 9, 5-Chloro-N-[(3S)-2-oxo-1-(1,2,3,4-tetrahydro-6-isoquinolinyl)-3-pyrrolidinyl]-1-benzothiophene-2-sulfonamide trifluoroacetate] | exhibit Factor Xa inhibitory activity | exhibit activity | 
10 | Cl.O=C1[C@@H](NS(=O)(=O)c2ccc(-c3ccc(Cl)s3)s2)CCN1c1ccc2c(c1)CCNC2 [Example 10, 5′-Chloro-N-[(3S)-2-oxo-1-(1,2,3,4-tetrahydro-6-isoquinolinyl)-3-pyrrolidinyl]-2,2′-bithiophene-5-sulfonamide hydrochloride] | exhibit Factor Xa inhibitory activity | exhibit activity | 
11 | Cl.O=C1[C@@H](NS(=O)(=O)c2ccc3cc(Cl)ccc3c2)CCN1c1ccc2c(c1)CNCC2 [Example 11, 6-Chloro-N-[(3S)-2-oxo-1-(1,2,3,4-tetrahydro-7-isoquinolinyl)-3-pyrrolidinyl]-2-naphthalenesulfonamide hydrochloride] | exhibit Factor Xa inhibitory activity | exhibit activity | 
12 | Cl.O=C1[C@@H](NS(=O)(=O)CCc2ccc(Cl)s2)CCN1c1ccc2c(c1)CNCC2 [Example 12, 2-(5-Chloro-2-thienyl)-N-[(3S)-2-oxo-1-(1,2,3,4-tetrahydro-7-isoquinolinyl)-3-pyrrolidinyl]ethanesulfonamide hydrochloride] | exhibit Factor Xa inhibitory activity | exhibit activity | 
13 | Cl.O=C1[C@@H](NS(=O)(=O)/C=C/c2ccc(Cl)s2)CCN1c1ccc2c(c1)CNCC2 [Example 13, (E)-2-(5-Chloro-2-thienyl)-N-[(3S)-2-oxo-1-(1,2,3,4-tetrahydro-7-isoquinolinyl)-3-pyrrolidinyl]ethenesulfonamide hydrochloride] | exhibit Factor Xa inhibitory activity | exhibit activity | 
14 | O=C1[C@@H](NS(=O)(=O)c2ccc3c(Cl)c[nH]c3c2)CCN1c1ccc2c(c1)CNCC2.O=CO [Example 14, 3-Chloro-N-[(3S)-2-oxo-1-(1,2,3,4-tetrahydro-7-isoquinolinyl)-3-pyrrolidinyl]-1H-indole-6-sulfonamide formate] | exhibit Factor Xa inhibitory activity | exhibit activity | 
15 | O=C1[C@@H](NS(=O)(=O)c2ccc3cc[nH]c3c2)CCN1c1ccc2c(c1)CNCC2.O=CO [Example 15, N-[(3S)-2-Oxo-1-(1,2,3,4-tetrahydro-7-isoquinolinyl)-3-pyrrolidinyl]-1H-indole-6-sulfonamide formate] | exhibit Factor Xa inhibitory activity |  | 
16 | Cl.O=C1[C@H](NS(=O)(=O)c2ccc3cc(Cl)ccc3c2)CCN1c1ccc2c(c1)CCNC2 [Example 16, 6-Chloro-N-[(3R)-2-oxo-1-(1,2,3,4-tetrahydro-6-isoquinolinyl)-3-pyrrolidinyl]-2-naphthalenesulfonamide hydrochloride] | exhibit Factor Xa inhibitory activity | exhibit activity | 
17 | Cl.O=C1[C@@H](NS(=O)(=O)/C=C/c2ccc(Cl)s2)CCN1c1ccc2c(c1F)CCNC2 [Example 18, (E)-2-(5-Chloro-2-thienyl)-N-[(3S)-1-(5-fluoro-1,2,3,4-tetrahydro-6-isoquinolinyl)-2-oxo-3-pyrrolidinyl]ethenesulfonamide hydrochloride] | exhibit Factor Xa inhibitory activity | exhibit activity | 
18 | Cl.O=C1[C@@H](NS(=O)(=O)c2ccc3c(Cl)c[nH]c3c2)CCN1c1ccc2c(c1F)CCNC2 [Example 19, 3-Chloro-N-[(3S)-1-(5-fluoro-1,2,3,4-tetrahydro-6-isoquinolinyl)-2-oxo-3-pyrrolidinyl]-1H-indole-6-sulfonamide hydrochloride] | exhibit Factor Xa inhibitory activity | exhibit activity | 
19 | Cl.O=C1[C@@H](NS(=O)(=O)c2ccc3cc(Cl)ccc3c2)CCN1c1cc2c(cc1F)CNCC2 [Example 20, 6-Chloro-N-[1-(7-fluoro-1,2,3,4-tetrahydro-6-isoquinolinyl)-2-oxo-3-pyrrolidinyl]-2-naphthalenesulfonamide hydrochloride] | exhibit Factor Xa inhibitory activity | exhibit activity | 
20 | CN([C@H]1CCN(c2ccc3c(c2)CCNC3)C1=O)S(=O)(=O)/C=C/c1ccc(Cl)s1 [Example 34, (E)-2-(5-Chloro-2-thienyl)-N-methyl-N-[(3S)-2-oxo-1-(1,2,3,4-tetrahydro-6-isoquinolinyl)-3-pyrrolidinyl]ethenesulfonamide hydrochloride] | exhibit Factor Xa inhibitory activity |  | < 0.01 µM
